The nature of data set [1]: Solution thermodynamics: formation constants (log KML) and pM of Ga(III) complexes, potentiometric titration. Format: physicochemical. As to conditions: Calculated for 10 μM total ligand and 1 μM total metal at pH 7.4 and 25° C. The procedure: A more relevant indicator of the extent to which a metal complex is formed in solution is given by pM (−log free M) which considers the influence of ligand basicity and chelate hydrolysis.
Carbonate-free solutions of the titrant, NaOH, were prepared by dilution of 50% solution (Acros Organics) with freshly boiled MQ water under a stream of purified nitrogen gas. The solution was standardized with potassium acid phthalate and the extent of carbonate accumulation was periodically checked by titration with a standard hydrochloric acid solution and determination of the corresponding Gran titration plot.^47 Gallium ion solutions were prepared by dilution of the appropriate atomic absorption (AA) standard. The exact amount of acid present in the gallium standard was determined by titration of an equimolar solution of Ga and Na2H2EDTA. The amount of acid present was determined by Gran's method.^47
Data were collected in triplicate using PC Control (Version 6.0.91, Metrohm). The titration apparatus consisted of a 10 mL water jacketed glass vessel maintained at 25.0±0.1° C. (Julabo waterbath). Prior to and during the course of the titration, a blanket of nitrogen, passed through 10% NaOH to exclude any CO2, was maintained over the sample solution. The ionic strength was maintained at 0.16 M using NaCl. Prior to each potentiometric equilibrium study, the electrode was calibrated using standard HCl solutions. Calibration data were analysed by standard computer treatment provided within the program MacCalib to obtain the calibration parameters E0 and pKw.
As the degree of formation of Ga(III) complexes at low pH (<2) was too high for the determination of stability constants by use of direct potentiometry, the ligand-ligand competition method using Na2H2EDTA was also performed.

The target of data set [2] is T1, human apo-transferrin (Homo sapiens, UniProt P02787). As to the kind of experiment: ^67Ga complex stability: 2-h competition with excess human apo-transferrin, HPLC. As to conditions: for Stability in competition with excess human apo-transferrin, 10 min / Stability in competition with excess human apo-transferrin, 1 h / Stability in competition with excess human apo-transferrin, 2 h: ^67Ga complex, 37° C.
T1 sequence (P02787 20-698): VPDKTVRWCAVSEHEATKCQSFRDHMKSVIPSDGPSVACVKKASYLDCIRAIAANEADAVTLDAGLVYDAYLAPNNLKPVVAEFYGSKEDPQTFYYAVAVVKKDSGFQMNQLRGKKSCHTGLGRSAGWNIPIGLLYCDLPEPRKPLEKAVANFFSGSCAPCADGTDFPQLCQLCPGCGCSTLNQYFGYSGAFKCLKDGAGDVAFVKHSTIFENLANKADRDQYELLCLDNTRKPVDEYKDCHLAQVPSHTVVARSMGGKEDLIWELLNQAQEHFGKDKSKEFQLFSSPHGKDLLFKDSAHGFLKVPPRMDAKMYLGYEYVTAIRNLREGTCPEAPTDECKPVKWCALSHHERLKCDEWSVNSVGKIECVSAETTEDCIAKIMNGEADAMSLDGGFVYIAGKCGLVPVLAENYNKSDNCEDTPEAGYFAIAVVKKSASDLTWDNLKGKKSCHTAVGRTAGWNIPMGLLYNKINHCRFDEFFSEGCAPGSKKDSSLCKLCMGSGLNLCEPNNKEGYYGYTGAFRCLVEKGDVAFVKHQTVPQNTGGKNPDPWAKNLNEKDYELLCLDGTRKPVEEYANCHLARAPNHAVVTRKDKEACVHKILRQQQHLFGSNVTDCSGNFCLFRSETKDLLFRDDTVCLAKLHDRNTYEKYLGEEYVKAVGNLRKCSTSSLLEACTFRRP
Method: (§1) FIG. 13 illustrates stacked labelling traces of ^67Ga(dedpa)^+ of 2 h stability experiment against apo-transferrin (gradient: A: NaOAc buffer, pH 4.5, B: MeOH. 0-100% B linear gradient 20 min).

The target of data set [3] is T1, human apo-transferrin. In words: ^111In-chelate stability: binding competition with human apo-transferrin at ambient temperature, PD-10 columns. The format is in vitro ADME. Also noted: Human serum apo-transferrin was purchased from Sigma-Aldrich; purchased Sigma-Aldrich; host or cells: human serum. The protocol: Human apo-transferrin (Aldrich) was suspended in 10 mM NaHCO3 buffer at pH 6.9. Labeling solutions were prepared with chelators and ^111In in 10 mM NaHCO3 buffer at pH 5.5, and allowed to sit for 20-30 minutes. Quantitative formation of ^111In-chelate complexes was confirmed by HPLC (same methods as in Example 2). ^111In(DOTA) was formed using a microwave reactor (Biotage) at 80° C. for 10 minutes to ensure quantitative labeling. Competition experiments for all 8 chelators studied (Table 3) were performed with preformed ^111In-chelate complexes at a concentration of 36.5 mM, and with human apo-transferrin at a concentration of ˜10 mM. Samples were left to sit in sterile scintillation vials for 1 hour and 24 hours at ambient temperature. Chelate stability was determined using size-exclusion ‘desalting’ columns (GE Healthcare PD-10 pre-packed columns, Sephadex G-25 M). All compounds smaller than ˜5000 Daltons were retained by the PD-10 columns, and all transferrin was eluted. PD-10 columns were conditioned by discarding the contained bactericidal solution and eluting 20 mL of phosphate buffered saline (PBS, purchased from BioWhittaker). For analysis, the competition experiment solutions were diluted to 2.5 mL with PBS, measured with a Capintec scintillation counter, loaded onto PD-10 columns, and allowed to elute into a waste container fully. An additional 3.5 mL of PBS was then loaded onto the columns and collected into a sterile scintillation vial. PD-10 columns were discarded after a single use. The vial containing the eluent was then measured with a Capintec scintillation counter to determine the amount of ^111In bound to transferrin. The difference in radioactivity between the competition experiment solutions and the eluent from the PD-10 columns was used to determine the percent ^111In bound to transferrin, and therefore the percent stability of the complexes.

The conditions of data set [4]: Ga(III) complex, cited from earlier work; for log KML: literature value.
Data set [5] is described as follows: log P. The format is physicochemical.
Data set [6] deals with T1, human apo-transferrin. As to conditions: 40 µM.
Method: as §1

Read-outs that look alike come from different tables or passages of the source.

As to `O=C(O)c1cccc(CNCCNCc2cccc(C(=O)O)n2)n1` [Compound H2dedpa], in data set [1], the pM is recorded as 27.4. The “Extraction of gallium from transferrin (in words)” value in data set [2] (challenge experiment) is listed as “capable of extracting gallium from transferrin”.
With `O=C(O)CN(CCN(CC(=O)O)Cc1cccc(C(=O)O)n1)Cc1cccc(C(=O)O)n1` [^111In(2), metal not drawn], in data set [3], the “% ^111In-chelate stability at 1 hour” value turned out to be 90% and the “% ^111In-chelate stability, 24 hour stability” value is given as 91%.
With “Transferrin: iron transport protein found in high concentrations in the blood that has an affinity for Ga”, in data set [1], the pM is 21.3. Further, in data set [4] (conditional constant from reference), the “log KML (conditional constant)” value is reported as 20.3.
Broadly, the log P is the decadic logarithm of the partition coefficient of the neutral form, usually between octanol and water. A high value points to higher lipophilicity. For `COc1cc(CN(CCN(Cc2cc(OC)cc(C(=O)[O-])n2)Cc2c(OC)cc(OC)cc2OC)Cc2c(OC)cc(OC)cc2OC)nc(C(=O)[O-])c1.O=[N+]([O-])[O-].[Ga+3]` [Ga(91b)NO3], in data set [5], the “log P” value stood at 0.66. Besides, in data set [2], the “Stability in competition with excess human apo-transferrin, 10 min” value (“Stability in competition … 10 min” for short) was found to be 97%; the “Stability in competition with excess human apo-transferrin, 1 h” value (from here on “Stability in competition … 1 h”) is listed as 96%; the “Stability in competition with excess human apo-transferrin, 2 h” value (shortened to “Stability in competition … 2 h”) is reported as 96%.
As to `O=C(O)CN(CCN(CC(=O)O)CC(=O)O)CC(=O)O` [EDTA, reference compound], in data set [1], the pM is 18.3. Besides, in data set [4], the “log KML” value is given as 21.7.
As for `O=C(O)c1cccc(CN(CCN(Cc2ccc([N+](=O)[O-])cc2)Cc2cccc(C(=O)O)n2)Cc2ccc([N+](=O)[O-])cc2)n1` [Compound 66], in data set [6] (10 min), the “Stability in competition … 10 min” value is reported as 88%. Besides, the “Stability in competition … 1 h” value in data set [6] (1 h) is given as 69%. The “Stability in competition … 2 h” value in data set [6] (2 h) was 51%.
For `O=C(O)CN(CCN(CC(=O)O)Cc1cccc(C(=O)O)n1)CCN(CC(=O)O)Cc1cccc(C(=O)O)n1` [^111In(6), metal not drawn], in data set [3], the “% ^111In-chelate stability at 1 hour” value came out at 89% and the “% ^111In-chelate stability, 24 hour stability” value is reported as 91%.
With `O=C(O)c1cccc(CNCCN(CCNCc2cccc(C(=O)O)n2)Cc2cccc(C(=O)O)n2)n1` [^111In(5), metal not drawn], in data set [3], the “% ^111In-chelate stability, 24 hour stability” value is recorded as 88%.
For the molecule `O=C(O)CN1CCN(CC(=O)O)CCN(CC(=O)O)CC1` [NOTA, 1,4,7-triazacyclononane-1,4,7-triacetic acid, reference compound], the pM in data set [1] is reported as 27.9. The “log KML” value in data set [4] is on record as 30.98.
Regarding `O=C([O-])CN(CCN(CC(=O)[O-])CC(=O)[O-])CCN(CC(=O)[O-])CC(=O)[O-].[111In+3]` [^111In(DTPA), reference compound], in data set [3], the “% ^111In-chelate stability at 1 hour” value came to 86% and the “% ^111In-chelate stability, 24 hour stability” value is given as 88%.
As to `COc1cc(OC)c(CN(CCN(Cc2cccc(C(=O)[O-])n2)Cc2c(OC)cc(OC)cc2OC)Cc2cccc(C(=O)[O-])n2)c(OC)c1.O=[N+]([O-])[O-].[Ga+3]` [Ga(91a)NO3], in data set [5], the “log P” value was −0.03. In data set [2], the “Stability in competition … 10 min” value came out at 86%; the “Stability in competition … 1 h” value amounted to 85%; the “Stability in competition … 2 h” value worked out at 82%.
With `O=C(O)CN1CCN(CC(=O)O)CCN(CC(=O)O)CCN(CC(=O)O)CC1` [DOTA, 1,4,7,10-tetraazacyclododecane-1,4,7,10-tetraacetic acid, reference compound], in data set [1], the pM is given as 18.5. Further, the “log KML” value in data set [4] was 21.33.
`O=C([O-])CN1CCN(CC(=O)[O-])CCN(CC(=O)[O-])CCN(CC(=O)[O-])CC1.[111In+3]` [^111In(DOTA), reference compound]: the “% ^111In-chelate stability, 24 hour stability” value in data set [3] came to 81%.
Consider `O=C(O)c1cccc(CNCCNCc2cccc(C(=O)O)n2)n1` [^111In(1), metal not drawn], for which, in data set [3], the “% ^111In-chelate stability at 1 hour” value came to 98% and the “% ^111In-chelate stability, 24 hour stability” value worked out at 43%.
As for `CCOc1cc(OCC)c(CN(CCN(Cc2cc(OC)cc(C(=O)[O-])n2)Cc2c(OCC)cc(OCC)cc2OCC)Cc2cc(OC)cc(C(=O)[O-])n2)c(OCC)c1.O=[N+]([O-])[O-].[Ga+3]` [Ga(99b)NO3], in data set [5], the “log P” value amounted to 1.16. Also, in data set [2], the “Stability in competition … 10 min” value is 94%; the “Stability in competition … 1 h” value is reported as 93%; the “Stability in competition … 2 h” value turned out to be 93%.
On to `COc1cc(CN(CCN(Cc2cc(OC)cc(OC)c2)Cc2cccc(C(=O)[O-])n2)Cc2cccc(C(=O)[O-])n2)cc(OC)c1.O=[N+]([O-])[O-].[Ga+3]` [Ga(88)NO3], for which the “log P” value in data set [5] is −0.32. In addition, in data set [2], the “Stability in competition … 10 min” value was 76%; the “Stability in competition … 1 h” value is recorded as 59%; the “Stability in competition … 2 h” value came to 52%.
In the case of `O=C(O)c1cccc(CNCCCNCc2cccc(C(=O)O)n2)n1` [^111In(3), metal not drawn], in data set [3], the “% ^111In-chelate stability at 1 hour” value is 91% and the “% ^111In-chelate stability, 24 hour stability” value turned out to be 85%.
In the case of `CCOc1cc(OCC)c(CN(CCN(Cc2cccc(C(=O)[O-])n2)Cc2c(OCC)cc(OCC)cc2OCC)Cc2cccc(C(=O)[O-])n2)c(OCC)c1.O=[N+]([O-])[O-].[Ga+3]` [Ga(99a)NO3], in data set [2], the “Stability in competition … 10 min” value is given as 95%; the “Stability in competition … 1 h” value was 92%; the “Stability in competition … 2 h” value is recorded as 91%.
Regarding `O=C(O)CN(CCCN(CC(=O)O)Cc1cccc(C(=O)O)n1)Cc1cccc(C(=O)O)n1` [^111In(4), metal not drawn], in data set [3], the “% ^111In-chelate stability at 1 hour” value is 93% and the “% ^111In-chelate stability, 24 hour stability” value is given as 91%.

These data come from patent US8772446B2, “Bifunctional chelating agents” (Nordion (Canada) Inc., priority 2010, dated 2014).
